From ChEMBL document CHEMBL5335775, “Bioisosteric replacement of 1H-1,2,3-triazole with 1H-tetrazole ring enhances anti-leukemic activity of (5-benzylthiazol-2-yl)benzamides” (Eur J Med Chem, 2023)
Activity calls are given as the source filed them. The rule behind the calls is not given here.

Legend:
[1] = system: CAKI-1; test: Inhibition of cell growth in human CAKI-1 cells incubated for 48 hrs by SRB assay; format: functional, cell-based; settings: CAKI-1, 48 h
[2] = system: K562; test: Antiproliferative activity against human K562 cells assessed as inhibition of cell proliferation measured after 72 hrs by MTT assay; format: functional, cell-based; settings: K562, 72 h
[3] = system: K562; test: Induction of pro-apoptotic morphological changes in human K562 cells assessed as formation of cytoplasmic blebs at 700 nM incubated for 24 hrs by Hoescht-33342 staining based analysis; format: functional, cell-based
[4] = system: LOX IMVI; test: Anticancer activity against human LOX IMVI cells assessed as cell growth at 10^-5 M incubated for 48 hrs by SRB assay relative to control; format: functional; settings: dose 1 10^-5M, read-out: Activity
[5] = system: LOX IMVI; test: Inhibition of cell growth in human LOX IMVI cells incubated for 48 hrs by SRB assay; format: functional, cell-based
[6] = system: T47D; test: Inhibition of cell growth in human T47D cells incubated for 48 hrs by SRB assay; format: functional, cell-based
[7] = system: K562; test: Induction of DNA damage in human K562 cells assessed as olive tail moment level at 70 nM incubated for 24 hrs by comet assay (reference value: 0.2); format: functional
[8] = system: K562; test: Induction of DNA damage in human K562 cells assessed as fold increase in tail DNA level at 70 to 700 nM incubated for 24 hrs by comet assay relative to control; format: functional; settings: dose 70-700 nM
[9] = system: M14; test: Inhibition of cell growth in human M14 cells incubated for 48 hrs by SRB assay; format: functional, cell-based; settings: M14, 48 h
[10] = system: UACC-62; test: Anticancer activity against human UACC-62 cells assessed as cell growth at 10^-5 M incubated for 48 hrs by SRB assay relative to control; format: functional; settings: UACC-62, 48 h, dose 1 10^-5M, read-out: Activity
[11] = system: MCF7; test: Anticancer activity against human MCF7 cells assessed as cell growth at 10^-5 M incubated for 48 hrs by SRB assay relative to control; format: functional; settings: MCF7, 48 h, dose 1 10^-5M, read-out: Activity
[12] = system: K562; test: Induction of pro-apoptotic morphological changes in human K562 cells assessed as cell shrinkage at 700 nM incubated for 24 hrs by Hoescht-33342 staining based analysis; format: functional
[13] = system: K562; test: Anticancer activity against human K562 cells assessed as cell growth at 10^-5 M incubated for 48 hrs by SRB assay relative to control; format: functional; settings: K562, 48 h, dose 1 10^-5M, read-out: Activity
[14] = system: K562; test: Inhibition of cell growth in human K562 cells incubated for 48 hrs by SRB assay; format: functional, cell-based; settings: K562, 48 h
[15] = system: T47D; test: Anticancer activity against human T47D cells assessed as cell growth at 10^-5 M incubated for 48 hrs by SRB assay relative to control; format: functional; settings: dose 1 10^-5M, read-out: Activity
[16] = system: KM12; test: Inhibition of cell growth in human KM12 cells incubated for 48 hrs by SRB assay; format: functional, cell-based; settings: KM12, 48 h
[17] = system: NCI-H460; test: Anticancer activity against human NCI-H460 cells assessed as cell growth at 10^-5 M incubated for 48 hrs by SRB assay relative to control; format: functional; settings: NCI-H460, 48 h, dose 1 10^-5M, read-out: Activity
[18] = system: SF-295; test: Anticancer activity against human SF-295 cells assessed as cell growth at 10^-5 M incubated for 48 hrs by SRB assay relative to control; format: functional; settings: SF-295, 48 h, dose 1 10^-5M, read-out: Activity
[19] = system: K562; test: Induction of DNA damage in human K562 cells assessed as tail DNA level at 700 nM incubated for 24 hrs by comet assay (reference value: 0.5 to 0.6 %); format: functional
[20] = Antiproliferative activity against human HaCaT cells assessed as inhibition of cell proliferation measured after 72 hrs by MTT assay; format: toxicity, cell-based
[21] = system: K562; test: Induction of pro-apoptotic morphological changes in human K562 cells at 70 nM incubated for 24 hrs by Hoescht-33342 staining based analysis; format: functional, cell-based
[22] = system: SK-MEL-5; test: Anticancer activity against human SK-MEL-5 cells assessed as cell growth at 10^-5 M incubated for 48 hrs by SRB assay relative to control; format: functional; settings: SK-MEL-5, 48 h, dose 1 10^-5M, read-out: Activity
[23] = system: SW-620; test: Inhibition of cell growth in human SW-620 cells incubated for 48 hrs by SRB assay; format: functional, cell-based; settings: SW-620, 48 h
[24] = Selectivity index, ratio of IC50 for […] to IC50 for human K562 cells; format: functional
[25] = system: UACC-62; test: Inhibition of cell growth in human UACC-62 cells incubated for 48 hrs by SRB assay; format: functional, cell-based; settings: UACC-62, 48 h
[26] = system: K562; test: Induction of DNA damage in human K562 cells assessed as olive tail moment level at 700 nM incubated for 24 hrs by comet assay (reference value: 0.2); format: functional
[27] = system: NCI-H460; test: Inhibition of cell growth in human NCI-H460 cells incubated for 48 hrs by SRB assay; format: functional, cell-based; settings: NCI-H460, 48 h
[28] = Antiproliferative activity against NIH3T3 cells assessed as inhibition of cell proliferation measured after 72 hrs by MTT assay; format: toxicity, cell-based; settings: mouse
[29] = system: NCI-H522; test: Anticancer activity against human NCI-H522 cells assessed as cell growth at 10^-5 M incubated for 48 hrs by SRB assay relative to control; format: functional; settings: NCI-H522, 48 h, dose 1 10^-5M, read-out: Activity
[30] = system: M14; test: Anticancer activity against human M14 cells assessed as cell growth at 10^-5 M incubated for 48 hrs by SRB assay relative to control; format: functional; settings: M14, 48 h, dose 1 10^-5M, read-out: Activity
[31] = system: K562; test: Induction of DNA damage in human K562 cells assessed as fold increase in olive tail moment at 70 to 700 nM incubated for 24 hrs by comet assay relative to control; format: functional; settings: dose 70-700 nM
[32] = Antiproliferative activity against J774.2 cells assessed as inhibition of cell proliferation measured after 72 hrs by MTT assay; format: toxicity, cell-based; settings: mouse
[33] = system: K562; test: Induction of DNA damage in human K562 cells assessed as tail DNA level at 70 nM incubated for 24 hrs by comet assay (reference value: 0.5 to 0.6 %); format: functional
[34] = system: UACC-257; test: Anticancer activity against human UACC-257 cells assessed as cell growth at 10^-5 M incubated for 48 hrs by SRB assay relative to control; format: functional; settings: UACC-257, 48 h, dose 1 10^-5M, read-out: Activity
[35] = system: K562; test: Induction of pro-apoptotic morphological changes in human K562 cells assessed as formation of apoptotic bodies at 700 nM incubated for 24 hrs by Hoescht-33342 staining based analysis; format: functional, cell-based
[36] = system: K562; test: Induction of pro-apoptotic morphological changes in human K562 cells assessed as nucleus fragmentation at 700 nM incubated for 24 hrs by Hoescht-33342 staining based analysis; format: functional, cell-based
[37] = system: HCT-15; test: Inhibition of cell growth in human HCT-15 cells incubated for 48 hrs by SRB assay; format: functional, cell-based; settings: HCT-15, 48 h

O=C(Nc1ncc(Cc2ccc(F)cc2)s1)c1ccc(-n2cnnn2)cc1
IC50 [1]: 772 nM
IC50 [2]: 700 nM
Activity [3]: Active
growth at 10 µM [4]: 26.3%
IC50 [5]: 206 nM
IC50 [6]: 896 nM
Activity [7]: 0.5
fold change (FC) [8]: 2
IC50 [9]: 261 nM
growth at 10 µM [10]: 19.2%
growth at 10 µM [11]: 34.4%
Activity [12]: Active
growth at 10 µM [13]: 23.2%
IC50 [14]: 56.4 nM
growth at 10 µM [15]: 23.2%
IC50 [16]: 927 nM
growth at 10 µM [17]: 25.5%
growth at 10 µM [18]: 25.9%
Activity [19]: 5.1%
IC50 at 72 h [20]: > 100000 nM
Activity [21]: inactive
growth at 10 µM [22]: 10.6%
IC50 [23]: 118 nM
Ratio IC50 [24]: 101
IC50 [25]: 56.9 nM
Activity [26]: 1.4
IC50 [27]: 993 nM
IC50 at 72 h [28]: > 100000 nM
growth at 10 µM [29]: 36.5%
growth at 10 µM [30]: 34.3%
fold change (FC) [31]: 2
IC50 at 72 h [32]: 70700 nM
Activity [33]: 1.1%
growth at 10 µM [34]: 32%
Activity [35]: Active
Activity [36]: Active
IC50 [37]: 347 nM
